Source: article PMC8597724, “Kanglemycin A Can Overcome Rifamycin Resistance Caused by ADP-Ribosylation by Arr Protein” (Antimicrobial Agents and Chemotherapy, 2021)

Target: T1, ArrMab (Mycobacteroides abscessus, UniProt B1MH05)
T1 construct: gene MAB_0591; N-terminal 6xHis tag (pET28), expressed in E. coli T7 Express; RED-NHS amine-labelled for MST
Assay: microscale thermophoresis
Format: binding
Description: microscale thermophoresis on ArrMab | ArrMab bound both antibiotics with the same Kd

T1 sequence (B1MH05 entry or part of it): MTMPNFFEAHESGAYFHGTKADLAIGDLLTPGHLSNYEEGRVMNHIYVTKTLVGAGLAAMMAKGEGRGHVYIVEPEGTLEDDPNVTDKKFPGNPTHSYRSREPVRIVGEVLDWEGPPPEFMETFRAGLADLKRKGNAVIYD

## CO[C@H]1/C=C/O[C@@]2(C)Oc3c(C)c(O)c4c(O)c(c(/C=N/N5CCN(C)CC5)c(O)c4c3C2=O)NC(=O)/C(C)=C\C=C\[C@H](C)[C@H](O)[C@@H](C)[C@@H](O)[C@@H](C)[C@H](OC(C)=O)[C@@H]1C [rifampicin]
  Kd: 27.9 µM
